Laboratory results taken from patent US12673956B2, “Oxadiazolyl dihydropyrano[2,3-b]pyridine inhibitors of HIPK2 for treating kidney fibrosis” (ICAHN SCHOOL OF MEDICINE AT MOUNT SINAI, priority 2021, dated 2026).
Like-named read-outs stand apart in the source and are kept apart here.

Columns and labels:
[1] = system: TGF/SMAD Signaling Pathway SBE Reporter—HEK293 Cell Line; assay: Luciferase screen, TGF/SMAD SBE reporter HEK293 cells stimulated with TGFβ; format: cell-based; conditions: Homo sapiens
Method: For the data in Table 1, the Bight-Glo™ Luciferase Assay System from Promega was used with TGF/SMAD Signaling Pathway SBE Reporter—HEK293 Cell Line from BPSbioscience. On day 1 SBE reporter-HEK293 cells were seeded at a density of 25,000 cells per well into a white clear-bottom 96-well microplate in 100 μl of growth medium without geneticin. The plate was incubated at 37° C. in a CO2 incubator for 24 hrs. The wells were renewed with 60 μL assay medium and treated with test compounds by adding 5 μL of compounds in medium. The concentration of test compound in medium is adjusted so that 5 μL will provide the desired molarity of the solution. For example, if the desired test concentration is 30 µM, then 5 μL of […] compound is added. After 4 hours, TGFβ was added to 10 ng/mL. The plate was incubated at 37° C. in a CO2 incubator overnight (18 hours). One hour prior to assay all medium was replaced. The luciferase assay was run using ONE-Step™ Luciferase Assay System by adding 100 al of ONE-Step™ Luciferase reagent per well, rocking at room temperature for ~15 to 30 minutes and measuring luminescence using a luminometer. The signals were normalized to percentage inhibition, with non-TGF treated cells as 100% inhibition, and the data were processed by Graphpad Prism.

[2] = system: Tg26 mice; assay: Tg26 mice, model of HIV-associated nephropathy (chronic kidney disease); format: in vivo
Source text: (§1) Activity of compounds of the invention was confirmed in vivo. Two chronic kidney disease models were employed: (1) Tg26 mice, a model of HIV-associated nephropathy, and (2) Col4a3-null mice, a model of Alport syndrome. Both CKD models are characterized by advanced glomerulosclerosis and tubulointerstitial fibrosis, leading to kidney failure and death approximately between 12 and 20 weeks of age.
Tg26 mice of FVB/N genetic background bearing a defective HIV-1 provirus lacking gag-pol have been described by Feng et al. [J Am Soc Nephrol 2009; 20: 2138-2146]. Six-week old heterozygous Tg26 mice are used. Wildtype littermates are used as controls. Mice in the treatment group receive test compound dissolved in 20% NMP, 60% PEG400, and 20% H2O by oral gavage at a dose of 30, 60, or 90 mg/kg body weight per day. Mice in the control group receive the same volume of vehicle. The mice are treated for a total of 4 weeks and sacrificed at age of 10 weeks. […] In another trial, 5- to 6-week old Tg26 mice were treated with Example 13 (90 mg/kg daily, PO) or vehicle for 4 weeks: 38% (8/21 mice) died of kidney failure in the control group within the experimental duration; 0% died in the HIPK2i-174 group (0/18 mice). […] [Because of significant inter-variability of baseline UACR in Tg26 mice at 5-6 weeks of age, the therapeutic effect is calculated based on fold change to baseline for each mouse.]

[3] = system: Col4a3-deficient mice; assay: Col4a3-deficient mice, model of Alport syndrome (chronic kidney disease); format: in vivo; conditions: 60 mg/kg daily PO
Method: as §1
Three-week old Col4a3-deficient mice were treated with Example 13 (60 mg/kg daily, PO) or vehicle for 6 weeks. The median survival in vehicle group was 56 days, which was increased to 68 days in the treated group (21% increase).

[4] = another trial, 90 mg/kg daily PO, 4 weeks
[5] = first trial, four-week treatment, n=8
[6] = first trial, four-week treatment, vs. vehicle
[7] = HEK293, 18 h, read-out: Luciferase IC50 nM

## CC1(C)Oc2ncc(-c3nc(-c4ccc(Cl)cc4)no3)cc2CC1O (stereo in doubt) [Example 13, (S)-6-(3-(4-chlorophenyl)-1,2,4-oxadiazol-5-yl)-2,2-dimethyl-3,4-dihydro-2H-pyrano[2,3-b]pyridin-3-ol]
[1]; SBE reporter-HEK293 cells, TGFβ 10 ng/mL, 18 hours, read-out: Luciferase IC50
  IC50: 156 nM
[2]; [4]
  reduction in kidney fibrosis (picrosirius red staining) in comparison to vehicle group: ~ 37%
  reduction of urinary albumin-to-creatinine ratio from baseline values: ~ 57%
[2]; another trial, 90 mg/kg daily PO, 4 weeks, n=17
  urinary albumin-to-creatinine ratio, fold change to baseline: 0.43±0.28
[2]; another trial, 90 mg/kg daily PO, 4 weeks, n=18
  kidney fibrosis assessed by picrosirius red histological staining: 2.8±1.2%
[2]; another trial, 5- to 6-week old Tg26 mice, 90 mg/kg daily PO, 4 weeks, 0/18 mice
  died of kidney failure within the experimental duration: 0%
[2]; first trial, four-week treatment, Log-rank Mantel-Cox test
  Hazard ratio comparing vehicle vs. treatment: 7.2
[2]; [5]
  average fold change in urinary albumin-to-creatinine ratio from week 0 to week 4: 0.352
  renal fibrosis, average % area: 2.540%
[2]; [6]
  reduction in average fold change in urinary albumin-to-creatinine ratio: ~ 65%
  reduction in renal fibrosis area: ~ 43%
[2]; first trial, six-week old Tg26 mice, oral gavage 30, 60, or 90 mg/kg per day, four-week treatment, n=20
  survival: 100%
[3]; 6 weeks
  increase of median survival vs. vehicle group: 21%
  reduction in kidney fibrosis (picrosirius red staining) in comparison to vehicle group: ~ 51%
[3]; 6 weeks, n=9
  kidney fibrosis assessed by picrosirius red histological staining: 13.7±6.3%
[3]; after 6 weeks of treatment
  reduction of urinary albumin-to-creatinine ratio vs. vehicle: ~ 45%
  urinary albumin-to-creatinine ratio: 41.4 ± 14.2 mg/mg
[3]; three-week old mice, 6 weeks
  median survival: 68 days

## CCn1ccc(-c2noc(-c3cnc4c(c3)C[C@@H](O)C(C)(C)O4)n2)n1 [Example 29, (R)-6-(3-(1-ethyl-1H-pyrazol-3-yl)-1,2,4-oxadiazol-5-yl)-2,2-dimethyl-3,4-dihydro-2H-pyrano[2,3-b]pyridin-3-ol]
[1]; [7]
  IC50: 56 nM

## CC1(C)Oc2ncc(-c3nc(-c4ccc(Br)cc4)no3)cc2CC1O (centres unmarked) [Example 1, 6-(3-(4-bromophenyl)-1,2,4-oxadiazol-5-yl)-2,2-dimethyl-3,4-dihydro-2H-pyrano[2,3-b]pyridin-3-ol]
[1]; [7]
  IC50: 43 nM

## CC1(C)Oc2ncc(-c3nc(-c4cc(Cl)cc(Cl)c4)no3)cc2C[C@@H]1O [Example 39, (S)-6-(3-(3,5-dichlorophenyl)-1,2,4-oxadiazol-5-yl)-2,2-dimethyl-3,4-dihydro-2H-pyrano[2,3-b]pyridin-3-ol]
[1]; [7]
  IC50: 1250 nM

## Cc1cc(-c2noc(-c3cnc4c(c3)C[C@H](O)C(C)(C)O4)n2)ccc1Cl [Example 36, (3S)-6-[3-(4-chloro-3-methyl-phenyl)-1,2,4-oxadiazol-5-yl]-2,2-dimethyl-3,4-dihydropyrano[2,3-b]pyridin-3-ol]
[1]; [7]
  IC50: 52 nM

## CC1(C)Oc2ncc(-c3nc(-c4ccc(Br)cc4)no3)cc2C[C@H]1O [Example 6, (R)-6-(3-(4-bromophenyl)-1,2,4-oxadiazol-5-yl)-2,2-dimethyl-3,4-dihydro-2H-pyrano[2,3-b]pyridin-3-ol]
[1]; [7]
  IC50: 27 nM
